Conditions: 303.15 K, Liquid, Vibrating tube method

CCCCCC(=O)OCC(COC(=O)CCCCC)(COC(=O)CCCCC)COC(=O)CCCCC [pentaerythritol tetrahexanoate]
Conditions	mass density [kg/m3]
20855 kPa	1001
20888 kPa	1001.2
20914 kPa	1001.2
20942 kPa	1001.1
20975 kPa	1001.1
21003 kPa	1001.2
21057 kPa	1001.1
21090 kPa	1001.2
21118 kPa	1001.3
21151 kPa	1001.3
21178 kPa	1001.2
21207 kPa	1001.4
21241 kPa	1001.3
21268 kPa	1001.5
21297 kPa	1001.3
21331 kPa	1001.4
21360 kPa	1001.3
21388 kPa	1001.4
21422 kPa	1001.4
21451 kPa	1001.6
21480 kPa	1001.5
21514 kPa	1001.5
21543 kPa	1001.5
21572 kPa	1001.4
21607 kPa	1001.6
21636 kPa	1001.5
21665 kPa	1001.5
21701 kPa	1001.5
21731 kPa	1001.6
21761 kPa	1001.6
21796 kPa	1001.7
21826 kPa	1001.7
21855 kPa	1001.7
21885 kPa	1001.6
21921 kPa	1001.7
21951 kPa	1001.7
21981 kPa	1001.8
22018 kPa	1001.8
22048 kPa	1001.8
22079 kPa	1001.8
22116 kPa	1001.9
22149 kPa	1001.8
22180 kPa	1001.9
22211 kPa	1002
22242 kPa	1001.8
22280 kPa	1001.9
22311 kPa	1002
22348 kPa	1002
22379 kPa	1002
22411 kPa	1002.1
22442 kPa	1002
22481 kPa	1002.1
22513 kPa	1002
22546 kPa	1002
22581 kPa	1002.1
22619 kPa	1002.2
22651 kPa	1002.1
22683 kPa	1002.2
22715 kPa	1002.2
22754 kPa	1002.2
22786 kPa	1002.3
22819 kPa	1002.3
22858 kPa	1002.4
22891 kPa	1002.2
22930 kPa	1002.3
22964 kPa	1002.4
22998 kPa	1002.3
23032 kPa	1002.4
23072 kPa	1002.4
23106 kPa	1002.3
23140 kPa	1002.4
23181 kPa	1002.4
23215 kPa	1002.5
23256 kPa	1002.4
23291 kPa	1002.4
23325 kPa	1002.5
23359 kPa	1002.5
23398 kPa	1002.5
24292 kPa	1003
24323 kPa	1003
24354 kPa	1003.1
24390 kPa	1002.9
24841 kPa	1003.3
24870 kPa	1003.4
24905 kPa	1003.4
24964 kPa	1003.4
25000 kPa	1003.5
25312 kPa	1003.6
25349 kPa	1003.7
25380 kPa	1003.6
25410 kPa	1003.8
25447 kPa	1003.7
25478 kPa	1003.7
25518 kPa	1003.7
25545 kPa	1003.9
25582 kPa	1003.9
25614 kPa	1003.7
25643 kPa	1003.8
25916 kPa	1003.9
25947 kPa	1003.9
25973 kPa	1004.1
26004 kPa	1004
26030 kPa	1004.2
26056 kPa	1004
26088 kPa	1004.1
26114 kPa	1004.1
26140 kPa	1004.1
26167 kPa	1004.2
26199 kPa	1004.1
26225 kPa	1004.2
26258 kPa	1004.3
26285 kPa	1004.1
26312 kPa	1004.2
26339 kPa	1004.2
26371 kPa	1004.2
26399 kPa	1004.2
26427 kPa	1004.2
26460 kPa	1004.3
26488 kPa	1004.3
26520 kPa	1004.3
26545 kPa	1004.4
26569 kPa	1004.3
26593 kPa	1004.4
26623 kPa	1004.3
26648 kPa	1004.2
26672 kPa	1004.4
26701 kPa	1004.4
26726 kPa	1004.3
26751 kPa	1004.5
26776 kPa	1004.4
26806 kPa	1004.4
26830 kPa	1004.4
26856 kPa	1004.5
26885 kPa	1004.5
26910 kPa	1004.5
26936 kPa	1004.7
26966 kPa	1004.6
26991 kPa	1004.4
27016 kPa	1004.6
27041 kPa	1004.7
27071 kPa	1004.6
27097 kPa	1004.6
27127 kPa	1004.5
27152 kPa	1004.5
27178 kPa	1004.7
27208 kPa	1004.8
27234 kPa	1004.7
27260 kPa	1004.7
27291 kPa	1004.6
27317 kPa	1004.6
27343 kPa	1004.7
27369 kPa	1004.9
27400 kPa	1004.9
27426 kPa	1004.8
27458 kPa	1004.7
27484 kPa	1004.8
27511 kPa	1004.8
27537 kPa	1004.8
27564 kPa	1004.8
27595 kPa	1004.9
27621 kPa	1004.9
27654 kPa	1005
27682 kPa	1004.9
27708 kPa	1005
27734 kPa	1004.9
27761 kPa	1005
27793 kPa	1005
27820 kPa	1005.1
27852 kPa	1005.1
27879 kPa	1005.1
27906 kPa	1005
27938 kPa	1005
27965 kPa	1005.2
27993 kPa	1005.2
28027 kPa	1005.2
28056 kPa	1005
28083 kPa	1005.1
28110 kPa	1005.1
28143 kPa	1005.1
28171 kPa	1005.3
28199 kPa	1005.3
28227 kPa	1005.2
28260 kPa	1005.2
28288 kPa	1005.2
28317 kPa	1005.3
28351 kPa	1005.4
28379 kPa	1005.3
28409 kPa	1005.3
28443 kPa	1005.3
28471 kPa	1005.3
28500 kPa	1005.4
28535 kPa	1005.4
28564 kPa	1005.4
28594 kPa	1005.5
28658 kPa	1005.5
28687 kPa	1005.5
28718 kPa	1005.5
28743 kPa	1005.5
28769 kPa	1005.6
28800 kPa	1005.6
28826 kPa	1005.5
28851 kPa	1005.6
28877 kPa	1005.6
28909 kPa	1005.6
29460 kPa	1006.1
29484 kPa	1005.9
29506 kPa	1005.9
29534 kPa	1006
29556 kPa	1006
29580 kPa	1006
29607 kPa	1006
29630 kPa	1006
29658 kPa	1006.1
29682 kPa	1006.1
29705 kPa	1006.1
29729 kPa	1006
29756 kPa	1006
29780 kPa	1006.1
29804 kPa	1006.2
29831 kPa	1006.2
29856 kPa	1006.1
29879 kPa	1006.1
29902 kPa	1006.2
29931 kPa	1006.1
29954 kPa	1006.1
29983 kPa	1006.2
30006 kPa	1006.3
30030 kPa	1006.3
30059 kPa	1006.2
30083 kPa	1006.3
30108 kPa	1006.3
30132 kPa	1006.3
30161 kPa	1006.4
30185 kPa	1006.4
30209 kPa	1006.2
30233 kPa	1006.3
30262 kPa	1006.3
30287 kPa	1006.3
31166 kPa	1006.8
31197 kPa	1006.8
31224 kPa	1006.8
31255 kPa	1006.9
31283 kPa	1006.9
31310 kPa	1006.9
31337 kPa	1006.9
31370 kPa	1007
31398 kPa	1007
31426 kPa	1007
31459 kPa	1006.9
31483 kPa	1007.1
31506 kPa	1007.1
31534 kPa	1006.9
31556 kPa	1007.1
31580 kPa	1007
31608 kPa	1007.1
31632 kPa	1007.1
31656 kPa	1007.2
31683 kPa	1007.1
31701 kPa	1007.2
31719 kPa	1007.1
31737 kPa	1007.2
31758 kPa	1007.1
31777 kPa	1007.2
31795 kPa	1007.2
31814 kPa	1007.4
31835 kPa	1007.2
31853 kPa	1007.2
31875 kPa	1007.2
31893 kPa	1007.3
31911 kPa	1007.3
31933 kPa	1007.2
31951 kPa	1007.3
31969 kPa	1007.3
31990 kPa	1007.5
32009 kPa	1007.4
32027 kPa	1007.3
32049 kPa	1007.3
32068 kPa	1007.3
32086 kPa	1007.4
32104 kPa	1007.4
32127 kPa	1007.5
32145 kPa	1007.4
32167 kPa	1007.4
32186 kPa	1007.4
32204 kPa	1007.4
32226 kPa	1007.5
32244 kPa	1007.4
32403 kPa	1007.6
32426 kPa	1007.6

From the NIST ThermoML archive (doi:10.1021/je060271a)
